# Experimental data reported in patent US12157730B2, “Heteroaryl derivative, method for producing same, and pharmaceutical composition comprising same as effective component” (VORONOI INC., priority 2019, dated 2024).
# Target: T1, Ba/F3 cell EGFR Exon20 ins NPH (Homo sapiens, UniProt P00533, INS773NPH)
# T1 construct: expressed in transfected cells; host or cells: Ba/F3
# Test: Ba/F3 cell proliferation suppression, EGFR Exon20 ins NPH
# Type: cell-based
# Conditions: GI50 class; Ba/F3 cell line with NPH inserted at Exon20 of EGFR; 72 hours
# Procedure, shortened: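 After 72 h compound exposure (twelve 3-fold steps, 0.3 nM–50 um final), live cells were measured by CellTiter-Glo luminescence and growth expressed as % of control to derive GI50. Cells were seeded at 3000–5000 per well a day earlier; Ba/F3 medium contained IL-3; three repeats.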
row,SMILES,Ba/F3 (NPH) Activity
1,"C=CC(=O)Nc1cc(Nc2cc(N3OCC[C@@H]3c3ccc(Cl)cc3)ncn2)c(OC)cc1N1CCC(N2C[C@@H](C)O[C@@H](C)C2)CC1 [compound 868, N-(5-((6-((R)-3-(4-chlorophenyl)isoxazolidine-2-yl)pyrimidine-4-yl)amino)-2-(4-((2S,6R)-2,6-dimethylmorpholino)piperidine-1-yl)-4-methoxyphenyl) acrylamide]",A (GI50 < 50 nM)
2,"C=CC(=O)Nc1cc(Nc2cc(N3OCC[C@@H]3c3cccc(OC)c3)ncn2)c(OC)cc1N1CC[C@@H](N2CCOCC2)C1 [compound 777, N-(4-methoxy-5-((6-((R)-3-(3-methoxyphenyl)isoxazolidine-2-yl)pyrimidine-4-yl)amino)-2-((R)-3-morpholinopyrolidine-1-yl)phenyl)acrylamide]",B (50 nM ≤ GI50 < 500 nM)
3,"C=CC(=O)Nc1cc(Nc2cc(N3OCC[C@@H]3Cc3cccc(F)c3C)ncn2)c(OC)cc1N1CCC(N2CCN(C3CC3)CC2)CC1 [compound 999, N-(2-(4-(4-cyclopropylpiperazine-1-yl)piperidine-1-yl)-5-((6-((S)-3-(3-fluoro-2-methylbenzyl)isoxazolidine-2-yl)pyrimidine-4-yl)amino)-4-methoxyphenyl) acrylamide]",A (GI50 < 50 nM)
4,"C=CC(=O)Nc1cc(Nc2cc(N3OCC[C@@H]3c3ccc(C)nc3)ncn2)c(OC)cc1N1CCC(N2C[C@H]3C[C@@H]2CN3C)CC1 [Example 234, N-(4-methoxy-2-(4-((1R,4R)-5-methyl-2,5-diazabicyclo[2.2.1]heptane-2-yl)piperidine-1-yl)-5-((6-((R)-3-(6-methylpyridine-3-yl)isoxazolidine-2-yl)pyrimidine-4-yl)amino)phenyl)acrylamide]",C (500 nM ≤ GI50 < 5000 nM)
5,"COc1cc(OCCC(C)(C)OC)c(NC(=O)/C=C/CN(C)C)cc1Nc1cc(N2OCC[C@@H]2c2cc(F)cc(F)c2)ncn1 [compound 496, N-(5-((6-((R)-3-(3,5-difluorophenyl)isoxazolidine-2-yl)pyrimidine-4-yl)amino)-4-methoxy-2-(3-methoxy-3-methylbutoxy)phenyl)-(E)-4-(dimethylamino) but-2-enamide]",C (500 nM ≤ GI50 < 5000 nM)
6,"C=CC(=O)Nc1cc(Nc2cc(N3OCC[C@@H]3c3ccccc3)ncn2)c(OC)cc1N1CCC(N2C[C@@H]3C[C@H]2CO3)CC1 [Example 54, N-(2-(4-((1S,4S)-2-oxa-5-oxabicyclo[2.2.1]heptane-5-yl)piperidine-1-yl)-4-methoxy-5-((6-((R)-3-phenylisoxazolidne-2-yl)pyrimidine-4-yl)amino)phenyl) acrylamide]",A (GI50 < 50 nM)
7,"C=CC(=O)Nc1cc(Nc2cc(N3OCC[C@@H]3c3ccc(F)cc3F)ncn2)c(OC)cc1N1C[C@H]2C[C@@H]1CO2 [compound 353, N-(2-((1R,4R)-2-oxa-5-azabicyclo[2.2.1]heptane-5-yl)-5-((6-((R)-3-(2,4-difluorophenyl)isoxazolidine-2-yl)pyrimidine-4-yl)amino)-4-methoxyphenyl) acrylamide]",A (GI50 < 50 nM)
8,C=CC(=O)Nc1cc(Nc2cc(N3OCC[C@@H]3c3cccc(Cl)c3Cl)ncn2)c(OC)cc1N1CCC(N2CCN(C3CCN(C)CC3)CC2)CC1 [compound 611],B (50 nM ≤ GI50 < 500 nM)
9,"C=CC(=O)Nc1cc(Nc2cc(N3OCC[C@@H]3c3ccccc3)ncn2)c(OC)cc1N1CCC(N2CCN(C(C)=O)CC2)CC1 [Example 284, N-(2-(4-(4-acetylpiperazine-1-yl)piperidine-1-yl)-4-methoxy-5-((6-((R)-3-phenylisoxazolidine-2-yl)pyrimidine-4-yl)amino)phenyl) acrylamide]",A (GI50 < 50 nM)
10,"C=CC(=O)Nc1cc(Nc2cc(N3OCC[C@@H]3c3cccc(F)c3F)ncn2)c(OC)cc1N1CCO[C@@H](C)C1 [compound 888, N-(5-((6-((R)-3-(2,3-difluorophenyl)isoxazolidine-2-yl)pyrimidine-4-yl)amino)-4-methoxy-2-((S)-2-methylmorpholino)phenyl)acrylamide]",A (GI50 < 50 nM)
